Results as given in patent US20100267784A1, “NOVEL 4,5-DIHYDROISOXAZOLES WITH ESTROGENIC ACTIVITY” (priority 2007, published 2010).
pIC50: −log10 of the molar value. Values belong to the molecule of their own block, whether it stands above or below them.

Assays:
ERβ [1] = target: T1, ERβ (Homo sapiens, UniProt Q92731); assay: Competitive binding against [6,7-3H(N)]estradiol in COS-1 cells transfected with human ERβ; conditions: for pIC50: ERβ IC50, COS-1 cells, competition against labeled E2, 2 hours at 37° C.; for ERβ RBA (relative binding affinity): relative to E2 = 100.0
T1 sequence (Q92731 whole entry): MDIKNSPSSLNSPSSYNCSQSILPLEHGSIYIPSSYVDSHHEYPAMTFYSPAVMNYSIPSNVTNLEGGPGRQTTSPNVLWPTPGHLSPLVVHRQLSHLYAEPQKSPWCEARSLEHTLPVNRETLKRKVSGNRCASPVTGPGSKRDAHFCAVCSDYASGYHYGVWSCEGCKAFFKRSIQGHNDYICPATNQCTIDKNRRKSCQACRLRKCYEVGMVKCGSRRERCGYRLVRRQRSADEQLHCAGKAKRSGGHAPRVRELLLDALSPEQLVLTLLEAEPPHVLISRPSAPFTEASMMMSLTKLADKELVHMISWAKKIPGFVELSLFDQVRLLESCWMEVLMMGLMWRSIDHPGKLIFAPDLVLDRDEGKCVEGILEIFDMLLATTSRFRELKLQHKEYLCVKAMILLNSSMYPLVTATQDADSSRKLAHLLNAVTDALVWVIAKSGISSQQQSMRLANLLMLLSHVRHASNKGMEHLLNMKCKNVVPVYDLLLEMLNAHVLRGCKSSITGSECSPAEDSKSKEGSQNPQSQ
Description: (§2) Determination of Relative Binding Affinity (RBA).
(§3) Relative binding affinities (RBA) were measured by a competitive assay against [6,7-^3H(N)]estradiol (PerkinElmer) in transsiently transfected COS-1 cells. […] After 2 hours of incubation at 37° C. the medium was removed. The cells were removed from the wells to 150 μl of 1× phosphate buffered saline (PBS), transferred to Eppendorf tubes and centrifuged at 4° C. using 4000 g for 5 min, and then washed twice with 150 μl of PBS. The cell pellets were dissolved to 50 μl of 0.5M NaOH and incubated for 15 min at 56° C., after which the samples were transferred to liquid twinkle tubes and treated with 3 ml of OptiPhase HiSafe 3 twinkle solution (PerkinElmer).

ERα [2] = target: T2, ERα (Homo sapiens, UniProt P03372); assay: Competitive binding against [6,7-3H(N)]estradiol in COS-1 cells transfected with human ERα; conditions: for pIC50: ERα IC50, COS-1 cells, competition against labeled E2, 2 hours at 37° C.; for ERα RBA (relative binding affinity): relative to E2 = 100.0
T2 sequence (P03372 1-595): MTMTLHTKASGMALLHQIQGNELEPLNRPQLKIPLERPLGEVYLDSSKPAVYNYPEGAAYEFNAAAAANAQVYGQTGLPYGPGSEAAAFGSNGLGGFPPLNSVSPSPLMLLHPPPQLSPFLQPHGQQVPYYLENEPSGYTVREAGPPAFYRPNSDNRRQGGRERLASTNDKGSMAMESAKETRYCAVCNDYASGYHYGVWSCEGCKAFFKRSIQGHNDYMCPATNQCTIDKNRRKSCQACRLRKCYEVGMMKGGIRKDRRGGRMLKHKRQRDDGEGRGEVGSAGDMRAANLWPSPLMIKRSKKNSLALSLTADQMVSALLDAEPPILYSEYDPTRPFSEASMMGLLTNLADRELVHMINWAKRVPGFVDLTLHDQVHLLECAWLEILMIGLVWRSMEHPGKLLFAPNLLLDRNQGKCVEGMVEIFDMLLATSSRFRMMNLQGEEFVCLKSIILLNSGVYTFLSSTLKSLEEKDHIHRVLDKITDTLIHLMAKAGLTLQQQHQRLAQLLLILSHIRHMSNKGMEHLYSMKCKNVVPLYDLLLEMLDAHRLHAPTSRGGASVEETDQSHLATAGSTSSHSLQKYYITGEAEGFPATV
Description: as §2, §3

ERα [3] = target: T2, ERα; assay: ERα reporter (luciferase) transactivation assay in transfected HEK293 cells; format: cell-based; set-up: expressed in transfected cells; host or cells: HEK293; conditions: sample concentration 10 μM, 24 hours, mean of at least three independent transfections
Outline: (§1)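 Compounds at 10 μM (or 0.1% vehicle) were applied for 24 hours to HEK293 cells previously transfected with an ERα or ERβ expression plasmid plus ERE-luciferase reporter and β-gal control. Lysate luciferase and β-galactosidase activities were read. Cells were grown in phenol-free, delipidated-serum medium; data are means ±SEM from at least three independent transfections.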

ERβ [4] = target: T1, ERβ; assay: ERβ reporter (luciferase) transactivation assay in transfected HEK293 cells; format: cell-based; set-up: expressed in transfected cells; host or cells: HEK293; conditions: for ERβ receptor activation relative to 10 nM E2 corresponding 100: sample concentration 10 μM, 24 hours, mean of at least three independent transfections
Outline: as §1

Structure (SMILES): COc1ccc(CC2CC(c3ccc(Cl)cc3)=NO2)cc1 (centres unmarked) [compound 38, 3-(4-Chlorophenyl)-5-(4-methoxybenzyl)-4,5-dihydroisoxazole]
melting point: 126.2 to 127.3 °C

Structure (SMILES): COc1ccc(CC2CC(c3ccc(Cl)cc3)=NO2)cc1OC (centres unmarked) [compound 39, 3-(4-Chlorophenyl)-5-(3,4-dimethoxybenzyl)-4,5-dihydroisoxazole]
melting point: 89 to 90.4 °C

Structure (SMILES): Clc1ccc(C2=NOC(Cc3cccc4ccccc34)C2)cc1 (centres unmarked) [compound 41, 3-(4-Chlorophenyl)-5-naphthalen-1-ylmethyl-4,5-dihydro-isoxazole]
melting point: 127.9 to 130.9 °C

Structure (SMILES): Clc1cccc(Cl)c1C1=NOC(Cc2ccccc2)C1 (centres unmarked) [compound 42, 5-Benzyl-3-(2,6-dichlorophenyl)-4,5-dihydroisoxazole]
melting point: 90 to 90.5 °C

Structure (SMILES): COc1ccc(CC2CC(c3c(Cl)cccc3Cl)=NO2)cc1 (centres unmarked) [compound 43, 3-(2,6-Dichlorophenyl)-5-(4-methoxybenzyl)-4,5-dihydroisoxazole]
melting point: 90.1 to 90.6 °C

Structure (SMILES): COc1ccc(C2=NOC(C)(Cc3ccccc3)C2)cc1 (centres unmarked) [compound 53, 5-Benzyl-3-(4-methoxyphenyl)-5-methyl-4,5-dihydro-isoxazole]
melting point: 97.8 to 98.6 °C

Structure (SMILES): CC1(Cc2ccccc2)CC(c2ccc3ccccc3c2)=NO1 (centres unmarked) [compound 57, 5-Benzyl-3-naphthalen-2-yl-5-methyl-4,5-dihydro-isoxazole]
melting point: 144.8 to 146.3 °C

Structure (SMILES): COc1ccc(C2=NOC(CCc3ccccc3)C2)cc1 (centres unmarked) [compound 60, 3-(4-Methoxy-phenyl)-5-phenethyl-4,5-dihydro-isoxazole]
melting point: 69.7 to 71.9 °C

Structure (SMILES): Fc1ccc(C2=NOC(CCc3ccccc3)C2)cc1 (centres unmarked) [compound 62, 3-(4-Fluoro-phenyl)-5-phenethyl-4,5-dihydro-isoxazole]
melting point: 69.8 to 71.2 °C

Structure (SMILES): Clc1ccc(C2=NOC(CCc3ccccc3)C2)cc1 (centres unmarked) [compound 63, 3-(4-Chloro-phenyl)-5-phenethyl-4,5-dihydro-isoxazole]
melting point: 74.8 to 75.7 °C

Structure (SMILES): COc1ccccc1C1=NOC(Cc2ccccc2)(c2ccccc2)C1 (centres unmarked) [compound 74, 5-Benzyl-3-(2-methoxyphenyl)-5-phenyl-4,5-dihydro-isoxazole]
melting point: 109.3 to 110.2 °C

Structure (SMILES): Fc1ccccc1C1=NOC(Cc2ccccc2)(c2ccccc2)C1 (centres unmarked) [compound 75, 5-Benzyl-3-(2-fluorophenyl)-5-phenyl-4,5-dihydro-isoxazole]
melting point: 134.3 to 135.2 °C

Structure (SMILES): Clc1ccc(C2=NOC(Cc3ccccc3)(c3ccccc3)C2)cc1 (centres unmarked) [compound 76, 5-Benzyl-3-(4-chlorophenyl)-5-phenyl-4,5-dihydro-isoxazole]
melting point: 120.3 to 122.1 °C

Structure (SMILES): COc1cccc(C2=NOC(Cc3ccccc3)(c3ccccc3)C2)c1 (centres unmarked) [compound 77, 5-Benzyl-5-phenyl-3-(3-methoxyphenyl)-4,5-dihydro-isoxazole]
melting point: 94.4 to 95.2 °C

Structure (SMILES): Oc1cccc(CCC2=NOC(Cc3ccccc3)C2)c1 (centres unmarked) [compound 92, 5-Benzyl-3-[2-(3-hydroxy-phenyl)-ethyl]-4,5-dihydro-isoxazole]
melting point: 120.6 to 122.8 °C

Structure (SMILES): Oc1ccc(CCC2=NOC(Cc3ccccc3)C2)cc1 (centres unmarked) [compound 93, 5-Benzyl-3-[2-(4-hydroxy-phenyl)-ethyl]-4,5-dihydro-isoxazole]
melting point: 143 to 144.8 °C

Structure (SMILES): Oc1ccc(CC2CC(CCc3ccccc3)=NO2)cc1 (centres unmarked) [compound 94, 5-(4-Hydroxy-benzyl)-3-phenethyl-4,5-dihydro-isoxazole]
melting point: 124.8 to 126.4 °C

Structure (SMILES): Oc1ccccc1CCC1=NOC(Cc2ccc(F)cc2)C1 (centres unmarked) [compound 97, 5-(4-Fluoro-benzyl)-3-[2-(2-hydroxy-phenyl)-ethyl]-4,5-dihydro-isoxazole]
melting point: 124.8 to 126.4 °C

Structure (SMILES): c1ccc(CC2CC(c3ccccc3)=NO2)cc1 (centres unmarked) [compound 107, 5-Benzyl-3-phenyl-4,5-dihydroisoxazole]
melting point: 67 to 68 °C

Structure (SMILES): c1ccc(CCC2=NOC(c3ccccc3)C2)cc1 (centres unmarked) [compound 110, 3-Phenethyl-5-phenyl-4,5-dihydroisoxazole]
melting point: 35 to 36.3 °C

Structure (SMILES): c1ccc(CCC2CC(c3ccccc3)=NO2)cc1 (centres unmarked) [compound 111, 5-Phenethyl-3-phenyl-4,5-dihydroisoxazole]
melting point: 66.1 to 67.2 °C

Structure (SMILES): c1ccc(CCC2=NOC(CCc3ccccc3)C2)cc1 (centres unmarked) [compound 116, 3,5-Di-phenethyl-4,5-dihydroisoxazole]
melting point: 56.2 to 58 °C

Results, then the molecule that gave them:

pIC50 (ERβ [1]): 5.69
ERβ RBA (relative binding affinity) (ERβ [1]): 0.096%
pIC50 (ERα [2]): 7.90
ERα RBA (relative binding affinity) (ERα [2]): 15.68%
ERα receptor activation relative to 10 nM E2 corresponding 100 (ERα [3]): 103.6%
ERβ receptor activation relative to 10 nM E2 corresponding 100 (ERβ [4]): 44.7%
Structure (SMILES): Oc1ccc(CCCC2=NOC(c3ccccc3)C2)cc1 (single isomer, unassigned) [88a, 3-[3-(4-Hydroxy-phenyl)-propyl]-5-phenyl-4,5-dihydroisoxazole]

pIC50 (ERβ [1]): 5.90
ERβ RBA (relative binding affinity) (ERβ [1]): 0.157%
pIC50 (ERα [2]): 7.52
ERα RBA (relative binding affinity) (ERα [2]): 6.533%
ERα receptor activation relative to 10 nM E2 corresponding 100 (ERα [3]): 65.0%
ERβ receptor activation relative to 10 nM E2 corresponding 100 (ERβ [4]): 77.1%
Structure (SMILES): Oc1ccc(CCCC2=NOC(c3ccccc3)C2)cc1 (single isomer, unassigned) [88b, 3-[3-(4-Hydroxy-phenyl)-propyl]-5-phenyl-4,5-dihydroisoxazole]

pIC50 (ERβ [1]): 5.51
ERβ RBA (relative binding affinity) (ERβ [1]): 0.063%
pIC50 (ERα [2]): 6.60
ERα RBA (relative binding affinity) (ERα [2]): 0.784%
ERα receptor activation relative to 10 nM E2 corresponding 100 (ERα [3]): 88.8%
ERβ receptor activation relative to 10 nM E2 corresponding 100 (ERβ [4]): 64.8%
Structure (SMILES): CC1(c2ccccc2)CC(CCCc2ccc(O)cc2)=NO1 (single isomer, unassigned) [90a, 3-[3-(4-Hydroxy-phenyl)-propyl]-5-methyl-5-phenyl-4,5-dihydro-isoxazole]

pIC50 (ERβ [1]): 4.70
ERβ RBA (relative binding affinity) (ERβ [1]): 0.010%
pIC50 (ERα [2]): 4.64
ERα RBA (relative binding affinity) (ERα [2]): 0.009%
ERα receptor activation relative to 10 nM E2 corresponding 100 (ERα [3]): 86.5%
ERβ receptor activation relative to 10 nM E2 corresponding 100 (ERβ [4]): 30.1%
Structure (SMILES): CC1(c2ccccc2)CC(CCCc2ccc(O)cc2)=NO1 (single isomer, unassigned) [90b, 3-[3-(4-Hydroxy-phenyl)-propyl]-5-methyl-5-phenyl-4,5-dihydro-isoxazole]

pIC50 (ERβ [1]): 5.90
ERβ RBA (relative binding affinity) (ERβ [1]): 0.157%
pIC50 (ERα [2]): 6.67
ERα RBA (relative binding affinity) (ERα [2]): 0.912%
ERα receptor activation relative to 10 nM E2 corresponding 100 (ERα [3]): 171.1%
ERβ receptor activation relative to 10 nM E2 corresponding 100 (ERβ [4]): 143.1%
Structure (SMILES): Oc1ccc(CCC2=NOC(Cc3ccccc3)C2)cc1 (single isomer, unassigned) [93a, 5-Benzyl-3-[2-(4-hydroxy-phenyl)-ethyl]-4,5-dihydro-isoxazole]

pIC50 (ERβ [1]): 5.96
ERβ RBA (relative binding affinity) (ERβ [1]): 0.180%
pIC50 (ERα [2]): 5.67
ERα RBA (relative binding affinity) (ERα [2]): 0.091%
ERα receptor activation relative to 10 nM E2 corresponding 100 (ERα [3]): 24.3%
ERβ receptor activation relative to 10 nM E2 corresponding 100 (ERβ [4]): 41.5%
Structure (SMILES): Oc1ccc(CCC2=NOC(Cc3ccccc3)C2)cc1 (single isomer, unassigned) [93b, 5-Benzyl-3-[2-(4-hydroxy-phenyl)-ethyl]-4,5-dihydro-isoxazole]

pIC50 (ERα [2]): 5.72
ERα RBA (relative binding affinity) (ERα [2]): 0.103%
ERα receptor activation relative to 10 nM E2 corresponding 100 (ERα [3]): 44.3%
ERβ receptor activation relative to 10 nM E2 corresponding 100 (ERβ [4]): −3.1%
Structure (SMILES): c1ccc(CCCC2=NOC(c3ccccc3)C2)cc1 (single isomer, unassigned) [113a, 5-Phenyl-3-(3-phenyl-propyl)-4,5-dihydro-isoxazole]

pIC50 (ERβ [1]): 5.27
ERβ RBA (relative binding affinity) (ERβ [1]): 0.036%
pIC50 (ERα [2]): 5.25
ERα RBA (relative binding affinity) (ERα [2]): 0.035%
ERα receptor activation relative to 10 nM E2 corresponding 100 (ERα [3]): 11.5%
ERβ receptor activation relative to 10 nM E2 corresponding 100 (ERβ [4]): 17.2%
Structure (SMILES): c1ccc(CCCC2=NOC(c3ccccc3)C2)cc1 (single isomer, unassigned) [113b, 5-Phenyl-3-(3-phenyl-propyl)-4,5-dihydro-isoxazole]

melting point: 88.1 to 89.2 °C
ERα receptor activation relative to 10 nM E2 corresponding 100 (ERα [3]): −4.0%
activation at 10 µM (ERβ [4]; HEK293, 24 h, read-out: ERβ receptor activation relative to 10 nM E2 corresponding 100, sample concentration 10 μM, mean of at least three independent transfections): 7.3%
Structure (SMILES): COc1ccc(C2=NOC(Cc3ccc(OC)c(OC)c3)C2)cc1 (centres unmarked) [16ab, 5-(3,4-Dimethoxybenzyl)-3-(4-methoxyphenyl)-4,5-dihydroisoxazole]
